Counter-ions that a name gives are not always drawn. Like-named read-outs stand apart in the source and are kept apart here.
How the values were obtained:
[1] = system: dogs, 24 hours after a two-step coronary ligature; test: two-step coronary ligature on the dog (Harris model); assay type: in vivo; conditions: for ectopic contractions in percent/min. / total number of heart contractions/min.: average value; for effective action in minutes (duration of action), Harris dog: i.v. at the effective dose, dogs, 24 hours after two-step coronary ligature
Method: Dose is the effective dose in mg/kg, as well as the duration of action in minutes in dogs, 24 hours after a two-step coronary ligature.

in vivo = conditions: rat, iv, i.v. tail vein, Wistar rats, parentheses = confidence interval p=0.05, read-out: LD50 i.v., acute toxicity of the rat
Method: The data were analyzed by the Probit regression analysis with a confidence interval of p=0.05 (values in parentheses).

[2] = system: CaCl2 arrhythmia of the rat; test: CaCl2 arrhythmia of the rat (antifibrillatory effect); conditions: ratio LD50 iv./ED50 iv.
Method: The data is analyzed by the Probit regression analysis with a confidence interval of p=0.05 (values in parentheses).
Q is the ratio of LD50 iv. /ED50 iv. to determine therapeutic breadth range.

[3] = system: dogs, 24 hours after a two-step coronary ligature; conditions: quinidine, cited from earlier work

Row | Compound | ectopic contractions in percent/min. ([1]; 5 mins, 0.005 mmol/kg) [percent/min.] | ectopic contractions in percent/min. ([1]; 30 mins, 0.005 mmol/kg) [percent/min.] | ectopic contractions in percent/min. ([1]; 60 mins, 0.005 mmol/kg) [percent/min.] | ectopic contractions in percent/min. ([1]; 120 mins, 0.005 mmol/kg) [percent/min.] | LD50 (in vivo) [mg/kg] | effective action in minutes (duration of action), Harris dog [1] [min] | Q = LD50/ED50 (therapeutic breadth) [2] | other results
1 | 5-(4-Diethylamino-butyryl)-5,10-dihydro-11H-dibenzo(b,e)(1,4)-diazepine-11- one [Example 2] | 26 | 24 | 75 | 90 | – | – | – | ectopic contractions in percent/min. ([1]; base, 0.005 mmol/kg): 88 percent/min.
2 | CN(C)CCCCCC(=O)N1c2ccccc2NC(=O)c2ccccc21 [Example 1, 5-(6-Dimethylamino-capronyl)-5,10-dihydro-11H-dibenzo(b,e)(1,4)-diazepine-11-one.HCl] | 30 | 47 | 54 | 68 | 85 | 60 | 207 | ectopic contractions in percent/min. ([1]; 180 mins, 0.005 mmol/kg): 80 percent/min.
3 | CCN(CC)CCCC(=O)N1c2ccc(Cl)cc2NC(=O)c2ccccc21 [Example 4, 8-Chloro-5-(4-diethylamino-butyryl)-5,10-dihydro-11H-dibenzo(b,e)(1,4)-diazepine-11-one] | – | – | – | – | 71 | 30 | 1614 | total number of heart contractions/min. ([1]; 30 mins., 0.005 mmol/kg): 180 min⁻¹; total number of heart contractions/min. ([1]; 120 mins., 0.005 mmol/kg): 183 min⁻¹
4 | CCN(CC)CCCCCC(=O)N1c2ccc(Cl)cc2NC(=O)c2ccccc21 [Example 6, 8-Chloro-5-(6-diethylamino-capronyl)-5,10-dihydro-11H-dibenzo(b,e)(1,4)-diazepine-11-one] | 20 | 4 | 37 | 76 | 38 | 60 | 86 | total number of heart contractions/min. ([1]; 5 mins., 0.005 mmol/kg): 170 min⁻¹
5 | O=C1Nc2cc(Cl)ccc2N(C(=O)CCCCCCN2CCOCC2)c2ccccc21 [Example 9, 8-Chloro-5-(7-N-morpholino-enanthoyl)-5,10-dihydro-11H-dibenzo(b,e)(1,4)-diazepine-11-one] | 21 | 38 | 42 | 42 | 41 | 120 | 256 | total number of heart contractions/min. ([1]; 120 mins., 0.005 mmol/kg): 156 min⁻¹; ectopic contractions in percent/min. ([1]; 180 mins, 0.005 mmol/kg): 73 percent/min.; ectopic contractions in percent/min. ([1]; 300 mins, 0.005 mmol/kg): 79 percent/min.; total number of heart contractions/min. ([1]; 360 mins., 0.005 mmol/kg): 180 min⁻¹; ectopic contractions in percent/min. ([1]; 360 mins, 0.005 mmol/kg): 89 percent/min.
6 | CCN(CC)CC(=O)Nc1c(C)cccc1C [Lidocaine, reference compound] | – | – | – | – | – | 15 | – | ectopic contractions in percent/min. ([1]; 5 mins, 0.02 mmol/kg (5.4 mg/kg)): 34 percent/min.; ectopic contractions in percent/min. ([1]; 30 mins, 0.02 mmol/kg (5.4 mg/kg)): 78 percent/min.; ectopic arrhythmia / ectopy rate (in words) ([1]; dog, Harris): decrease in the ectopic arrhythmia; total number of heart contractions (in words) ([1]; dog, Harris): decrease in the total number of heart contractions
7 | C=C[C@H]1C[N@@]2CC[C@H]1C[C@@H]2[C@@H](O)c1ccnc2ccc(OC)cc12 [Quinidine] | – | – | – | – | – | – | – | Harris dog effective dose ([3]; i.v., reference [1] Mokler and Arman 1962): 10.0 mg/kg; effective action in minutes (duration of action), Harris dog ([3]; i.v., reference [1]): 15 min; ectopic arrhythmia (in words) ([3]; reference [1]): decrease in the ectopic arrhythmia; total number of heart contractions (in words) ([3]; reference [1]): decrease in the total number of heart contractions

From patent US5264432A, “5-(1-aminoacyl)-5,10-dihydro-11H-dibenzo[b,e](1,4)diazepin-11-ones” (Arzneimittelwerk Dresden G.m.b.H, priority 1989, dated 1993)
